Data: ChEMBL document CHEMBL5120867, “Hernandezine Regulates Proliferation and Autophagy-Induced Apoptosis in Melanoma Cells” (J Nat Prod, 2022)
Calls of active or inactive are those of the source. No cut-off for these calls is given here.

How the values were obtained:
A-375 [1] = assay: Upregulation of p27 accumulation in human A-375 cells at 6 to 8 uM measured after 12 to 24 hrs by western blot assay; assay type: functional, cell-based; conditions: dose 6-8 µM, time 12-24 hrs
[2] = target: Tyrosine-protein kinase JAK2 (Homo sapiens) (UniProt O60674); assay: Inhibition of JAK2 phosphorylation in human A-375 cells assessed as decrease in phosphorylated JAK2 level at 6 to 8 uM measured after 12 to 24 hrs by Western blot analysis; assay type: cell-based; conditions: dose 6-8 µM, time 12-24 hrs
A-375 [3] = assay: Induction of cell cycle arrest in human A-375 cells assessed as accumulation at G0/G1 phase at 6 uM incubated for 24 hrs by PI staining based flow cytometry analysis (reference value: 69.68 %); assay type: functional
A-375 [4] = assay: Induction of autophagy in human A-375 cells assessed as decrease in phosphorylated p70S6K level at 7 uM incubated for 6 to 24 hrs by Western blotting analysis; assay type: functional, cell-based; conditions: time 6-24 hrs
A-375 [5] = assay: Induction of apoptosis in human A-375 cells assessed as late apoptotic cells preincubated for 2 hrs with 3-MA followed by compound addition and measured after 24 hrs by Annexin-V-FITC/PI-staining based flow cytometry (reference value: 5.7 %); assay type: functional
B16 [6] = assay: Induction of cell cycle arrest in mouse B16 cells assessed as accumulation at G2/M phase incubated for 24 hrs in presence of AG490 by PI staining based flow cytometry analysis (reference value: 0.88 %); assay type: functional
B16 [7] = assay: Induction of cell cycle arrest in mouse B16 cells assessed as accumulation at G2/M phase at 5 uM incubated for 24 hrs by PI staining based flow cytometry analysis (reference value: 4.70 %); assay type: functional
A-375 [8] = assay: Induction of cell cycle arrest in human A-375 cells assessed as accumulation at G0/G1 phase incubated for 24 hrs in presence of AG490 by PI staining based flow cytometry analysis (reference value: 56.69 %); assay type: functional
A-375 [9] = assay: Inhibition of autophagy in human A-375 cells harbouring mCherry-egfp-LC3 assessed as increase in proportion of autolysosome at 7 uM incubated for 8 to 24 hrs by laser scanning confocal microscopic analysis; assay type: functional, cell-based; conditions: time 8-24 hrs, TDE = time-dependent effect
A-375 [10] = assay: Induction of cell cycle arrest in human A-375 cells assessed as accumulation at S phase incubated for 24 hrs in presence of AG490 by PI staining based flow cytometry analysis (reference value: 34.44 %); assay type: functional
B16 [11] = assay: Induction of apoptosis in mouse B16 cells assessed as late apoptotic cells preincubated for 2 hrs with 3-MA followed by compound addition and measured after 24 hrs by Annexin-V-FITC/PI-staining based flow cytometry (reference value: 5.7 %); assay type: functional
B16 [12] = assay: Induction of cell cycle arrest in mouse B16 cells assessed as accumulation at G0/G1 phase at 5 uM incubated for 24 hrs by PI staining based flow cytometry analysis (reference value: 61.83 %); assay type: functional
B16 [13] = assay: Induction of cell cycle arrest in mouse B16 cells assessed as accumulation at S phase incubated for 24 hrs in presence of AG490 by PI staining based flow cytometry analysis (reference value: 42.53 %); assay type: functional
A-375 [14] = assay: Induction of apoptosis in human A-375 cells assessed as […] of Bax/Mcl-1 protein level at 6 to 8 uM incubated for 24 hrs by Western blot analysis; assay type: functional, cell-based; conditions: dose 6-8 µM
B16 [15] = assay: Induction of cell cycle arrest in mouse B16 cells assessed as accumulation at G0/G1 phase at 7 uM incubated for 24 hrs by PI staining based flow cytometry analysis (reference value: 61.83 %); assay type: functional
A-375 [16] = assay: Induction of cell cycle arrest in human A-375 cells assessed as accumulation at S phase at 6 uM incubated for 24 hrs by PI staining based flow cytometry analysis (reference value: 28.83 %); assay type: functional
A-375 [17] = assay: Induction of apoptosis in human A-375 cells assessed as late apoptotic cells at 6 uM after 24 hrs by Annexin-V-FITC/PI-staining based flow cytometry (reference value: 5.7 %); assay type: functional
A-375 [18] = assay: Cytotoxicity against human A-375 cells assessed as reduction in cell viability measured after 24 hrs by MTT assay; assay type: functional, cell-based; conditions: A-375, 24 h
B16 [19] = assay: Induction of apoptosis in mouse B16 cells assessed as chromatin condensation at 5 to 7 uM incubated for 24 hrs by Hoechst 33258 staining based fluorescence microscopy; assay type: functional, cell-based; conditions: dose 5-7 µM
A-375 [20] = assay: Induction of cell cycle arrest in human A-375 cells assessed as accumulation at G2/M phase at 6 uM incubated for 24 hrs by PI staining based flow cytometry analysis (reference value: 1.48 %); assay type: functional
A-375 [21] = assay: Downregulation of CDK4 protein expression in human A-375 cells at 6 to 8 uM measured after 12 to 24 hrs by western blot assay; assay type: functional, cell-based; conditions: dose 6-8 µM, time 12-24 hrs
B16 [22] = assay: Inhibition of autophagy in mouse B16 cells harbouring mCherry-EGFP-LC3 assessed as increase in proportion of autolysosomes at 6 uM for 8 to 24 hrs by laser scanning confocal microscopic analysis; assay type: functional, cell-based; conditions: time 8-24 hrs
B16 [23] = assay: Induction of apoptosis in mouse B16 cells assessed as early apoptotic cells preincubated for 2 hrs with […] followed by compound addition and measured after 24 hrs by Annexin-V-FITC/PI-staining based flow cytometry (reference value: 0.9 %); assay type: functional
A-375 [24] = assay: Induction of apoptosis in human A-375 cells assessed as cytoplasmic shrinkage at 6 to 8 uM incubated for 24 hrs by Hoechst 33258 staining based fluorescence microscopy; assay type: functional, cell-based; conditions: dose 6-8 µM
A-375 [25] = assay: Inhibition of colony formation in human A-375 cells assessed as reduction in number of colonies at 6 to 8 uM incubated for 24 hrs followed by replacement with fresh medium and measured after 14 days by crystal violet staining based analysis; assay type: functional, cell-based; conditions: dose 6-8 µM
A-375 [26] = assay: Induction of apoptosis in human A-375 cells assessed as late apoptotic cells preincubated for 2 hrs with […] followed by compound addition and measured after 24 hrs by Annexin-V-FITC/PI-staining based flow cytometry (reference value: 5.7 %); assay type: functional
B16 [27] = assay: Induction of apoptosis in mouse B16 cells assessed as late apoptotic cells measured after 24 hrs by Annexin-V-FITC/PI-staining based flow cytometry (reference value: 5.7 %); assay type: functional
B16 [28] = assay: Inhibition of colony formation in mouse B16 cells assessed as reduction in volume of colonies at 5 to 7 uM incubated for 24 hrs followed by replacement with fresh medium and measured after 14 days by crystal violet staining based analysis; assay type: functional, cell-based; conditions: dose 5-7 µM
A-375 [29] = assay: Induction of autophagy in human A-375 cells assessed as decrease in LC3-I /LC3-II ratio at 7 uM incubated for 6 to 24 hrs by […]; assay type: functional, cell-based; conditions: time 6-24 hrs
A-375 [30] = assay: Induction of autophagy in human A-375 cells assessed as increase in phosphorylated AMPK at 7 uM incubated for 6 to 24 hrs by Western blotting analysis; assay type: functional, cell-based; conditions: time 6-24 hrs
A-375 [31] = assay: Induction of apoptosis in human A-375 cells assessed as early apoptotic cells at 7 uM after 24 hrs by Annexin-V-FITC/PI-staining based flow cytometry (reference value: 1.4 %); assay type: functional
B16 [32] = assay: Induction of apoptosis in mouse B16 cells assessed as cytoplasmic shrinkage at 5 to 7 uM incubated for 24 hrs by Hoechst 33258 staining based fluorescence microscopy; assay type: functional, cell-based; conditions: dose 5-7 µM
A-375 [33] = assay: Induction of apoptosis in human A-375 cells assessed as early apoptotic cells preincubated for 2 hrs with […] followed by compound addition and measured after 24 hrs by Annexin-V-FITC/PI-staining based flow cytometry (reference value: 3.1 %); assay type: functional

Chain of Tyrosine-protein kinase JAK2 (Homo sapiens) (O60674 whole entry): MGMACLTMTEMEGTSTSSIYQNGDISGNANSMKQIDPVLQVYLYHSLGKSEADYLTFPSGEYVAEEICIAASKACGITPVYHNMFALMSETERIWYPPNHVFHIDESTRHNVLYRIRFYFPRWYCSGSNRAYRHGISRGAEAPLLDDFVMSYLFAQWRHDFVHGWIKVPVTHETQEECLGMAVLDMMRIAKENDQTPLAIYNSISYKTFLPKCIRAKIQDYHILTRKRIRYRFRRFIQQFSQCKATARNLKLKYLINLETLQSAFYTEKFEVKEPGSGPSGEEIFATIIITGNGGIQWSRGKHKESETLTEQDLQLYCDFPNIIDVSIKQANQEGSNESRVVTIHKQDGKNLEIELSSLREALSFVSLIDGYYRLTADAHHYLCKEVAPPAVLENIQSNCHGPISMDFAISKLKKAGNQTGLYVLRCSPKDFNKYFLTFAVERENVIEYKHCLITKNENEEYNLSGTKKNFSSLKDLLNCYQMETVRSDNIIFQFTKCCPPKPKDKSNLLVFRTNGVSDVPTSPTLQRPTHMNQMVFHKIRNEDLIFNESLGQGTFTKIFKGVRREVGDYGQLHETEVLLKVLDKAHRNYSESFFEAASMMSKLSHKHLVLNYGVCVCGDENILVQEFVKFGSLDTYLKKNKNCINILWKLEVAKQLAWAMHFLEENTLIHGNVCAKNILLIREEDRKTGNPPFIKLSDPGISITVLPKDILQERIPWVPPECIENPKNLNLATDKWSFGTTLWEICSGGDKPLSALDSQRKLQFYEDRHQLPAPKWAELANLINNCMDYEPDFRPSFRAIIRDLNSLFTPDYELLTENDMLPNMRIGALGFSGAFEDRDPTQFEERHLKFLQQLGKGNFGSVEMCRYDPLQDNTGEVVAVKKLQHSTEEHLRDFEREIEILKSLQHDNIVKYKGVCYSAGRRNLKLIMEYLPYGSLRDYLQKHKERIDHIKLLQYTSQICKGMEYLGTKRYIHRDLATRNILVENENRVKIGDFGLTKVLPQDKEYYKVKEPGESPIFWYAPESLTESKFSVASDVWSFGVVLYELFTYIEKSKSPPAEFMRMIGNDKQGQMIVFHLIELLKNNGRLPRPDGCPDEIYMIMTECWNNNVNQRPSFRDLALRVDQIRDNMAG

inhibition [2]: Active
SMILES: COc1ccc2cc1Oc1ccc(cc1)C[C@H]1c3cc(c(OC)cc3CCN1C)Oc1c(OC)c(OC)c(OC)c3c1[C@H](C2)N(C)CC3 [HERNANDEZINE]
Activity (A-375 [1]): Active
Activity (A-375 [3]): 76.28%
Activity (A-375 [4]): Active
Activity (A-375 [5]): 27.1%
Activity (B16 [6]): 8.47%
Activity (B16 [7]): 4.58%
Activity (A-375 [8]): 70.87%
inhibition (A-375 [9]): Tde
Activity (A-375 [10]): 24.36%
Activity (B16 [11]): 14.5%
Activity (B16 [12]): 72%
Activity (B16 [13]): 6.92%
Activity (A-375 [14]): Active
Activity (B16 [15]): 76.38%
Activity (A-375 [16]): 22.28%
Activity (A-375 [17]): 18.9%
IC50 (A-375 [18]): 7.2 µM
Activity (B16 [19]): Active
Activity (A-375 [20]): 1.43%
Activity (A-375 [21]): Active
inhibition (B16 [22]): Active
Activity (B16 [23]): 14.4%
Activity (A-375 [24]): Active
inhibition (A-375 [25]): Active
Activity (A-375 [26]): 23.9%
Activity (B16 [27]): 20.6%
inhibition (B16 [28]): Active
Activity (A-375 [29]): Active
Activity (A-375 [30]): Active
Activity (A-375 [31]): 9.4%
Activity (B16 [32]): Active
Activity (A-375 [33]): 34.8%
